{"source": "paper PMC4210147", "about": "“Sequence-Specific Dimerization of a Transmembrane Helix in Amphipol A8-35” (PLoS ONE, 2014)", "molecules": {"B1": {"name": "GpA TM domain peptide (residues 69–101 of human glycophorin A) (peptide)", "peptide": "SEPEITLIIFGVMAGVIGTILLISYGIRRLIKK", "modifications": "also: N-terminal label: fluorescein or TAMRA", "notes": "glycophorin A, human, transmembrane domain, residues 69-101; Self-association is measured by FRET between the FL-labelled and the TAMRA-labelled copy of the same peptide, mixed in equal concentrations (0.25 µM each); both are written as one molecule; also called GpA TM peptide; GpA TM helix; source: synthetic peptide (custom-synthesized, Peptide Specialty Laboratories, Heidelberg)"}}, "key": {"[1]": {"experiment": "Isothermal titration calorimetry, SDS demicellization in presence of A8-35", "type": "physicochemical", "settings": "25°C, 10 mM phosphate, 150 mM NaCl, pH 7.4", "protocol": "ITC experiments were performed on a VP-ITC (GE Healthcare) at 25°C in 10 mM phosphate buffer (150 mM NaCl, pH 7.4). For demicellization experiments, 5-µL aliquots containing both, SDS at a concentration well above its CMC (10-13 mM) as well as A8-35 at concentrations of 5-140 µM, were injected into the sample cell containing the same amphipol concentration but no SDS. Time spans between injections were chosen long enough to allow for complete re-equilibration. Baseline subtraction and peak integration were accomplished using NITPIC [32], and the resulting isotherms were analyzed by nonlinear least-squares fitting in a spreadsheet program.\nThermal denaturation of MPs often leads to irreversible aggregation of the MP, and guanidine hydrochloride and urea, which are frequently used in unfolding studies involving soluble proteins, do typically not denature the TM regions of MPs. This is why the thermodynamic stability of integral MPs within membrane-mimetic systems is often assessed by titrating increasing concentrations of the anionic detergent SDS to MPs dissolved in a mild detergent, such as DDM [24], [40]-[44]. […] At low APol concentrations, the isotherms thus obtained resembled those measured in SDS demicellization experiments in the absence of APol. […]\nFigure 5 Interactions of SDS with A8-35 monitored by isothermal titration calorimetry. […]"}, "[2]": {"settings": "octylglucoside with A8-35 and other amphipols; ref [13]; cited from earlier work"}, "[3]": {"molecular_target": "the molecule itself", "experiment": "FRET or BRET; steady-state FRET at 0.5 µM peptide and 20 µM A8-35 (40:1) with increasing SDS added to preformed APol/GpA complexes; 25°C after incubation at 37°C; apparent constants; dimer to monomers"}, "[4]": {"molecular_target": "the molecule itself", "experiment": "FRET or BRET; steady-state FRET of FL- and TAMRA-labelled peptide (0.25 µM each, 0.5 µM total) in Amphipol A8-35 at 5 to 75 µM; 10 mM HEPES pH 7.4, 150 mM NaCl; 25°C; apparent constants; dimer to monomers"}, "[5]": {"molecular_target": "the molecule itself", "experiment": "FRET or BRET; energy transfer at different acceptor mole ratios at constant total peptide concentration, in 5 µM and 50 µM A8-35"}}, "note": "Entries after “also recorded” stand apart in the source; their conditions may differ. No end group written: not given here.", "data": [{"molecule": "CCCCCCCCCCCCOS(=O)(=O)[O-].[Na+]", "note": "[SDS, sodium dodecyl sulfate]", "values": [{"measurement": "mixing behavior of SDS with A8-35", "setting": "[1]; qualitative", "result": "follows a more complex pattern; also recorded: strongly non-ideal"}, {"measurement": "nonideality parameters of SDS/A8-35 mixing", "setting": "[1]; regular mixing model, intermediate SDS contents, A8-35 5-140 µM", "result": "3–4 RT"}]}, {"molecule": "CCCCCCCCO[C@@H]1O[C@H](CO)[C@@H](O)[C@H](O)[C@H]1O", "note": "[octylglucoside]", "values": [{"measurement": "mixing behavior with amphipols", "setting": "[2]", "result": "nearly ideal mixing behavior"}]}, {"molecule": "B1", "values": [{"measurement": "fold increase of KD (SDS exceeding 1.5 mM against no SDS)", "setting": "[3]", "result": "~10", "unit": "fold"}, {"measurement": "Kd", "setting": "[4]", "result": "< 300", "unit": "nM"}, {"measurement": "stoichiometry N", "setting": "[5]", "result": 2}]}]}
